Here are results for two molecules from article PMC11040670, “Mechanistic and Kinetic Insights into Cellular Uptake of Biomimetic Dinitrosyl Iron Complexes and Intracellular Delivery of NO for Activation of Cytoprotective HO-1” (JACS Au, 2024).

Structures are written as SMILES.

For one data set, the target named is T1, metMb (Equus caballus, UniProt P68082).
T1 construct: purchased Sigma
Further details: method as in PMID 37533298. The note with it: dinuclear DNIC, no Cys; cited from earlier work.

The next data set deals with HMOX1 gene. Kind of data set: Activation of HMOX1/HO-1, stated jointly for MSC/N2a/HCEC (incl. PTIO/ODQ). It counts as cell-based. As for the experimental part: After treatment of (1) 100 μM of DNIC–COOH to MSC, (2) 100 μM of DNIC–COOH to N2a, (3) 75 μM of DNIC–COOH to HCEC, (4) 2.5 μM of DNIC–COOMe to MSC, (5) 10 μM of DNIC–COOMe to N2a, and (6) 1 μM of DNIC–COOMe to HCEC, respectively, the total RNA of the treated cells was extracted using TRIzol Reagent (Thermo Fisher Scientific) in order to assess the time-dependent change in the mRNA level of HO-1. After the synthesis of complementary DNA with the High-Capacity Reverse Transcription Kit, qPCR was conducted using Power SYBR Green PCR Master Mix with the StepOnePlus Real-Time PCR System (Thermo Fisher Scientific). The primer sequences were as follows: HMOX1 forward 5′-[…]-3′ and reverse 5′-[…]-3′; RPL13A forward 5′-[…]-3′ and reverse 5′- […]-3′; GAPDH forward 5′-[…]-3′ and reverse 5′-[…]-3′. The relative mRNA levels of target genes were determined by a comparative threshold cycle method and normalized to that of RPL13A (or GAPDH). The mRNA level of HO-1 in the MSC, N2a, and HCEC cells, respectively, that received the (1) sequential treatments of 1H-[1,2,4]oxadiazolo-[4,3-a]quinoxalin-1-one (ODQ, 10 μM for 1 h) and DNIC–COOH (100 μM in MSC for 3 h, 100 μM in N2a for 10 h, and 75 μM in HCEC for 6 h) or (2) cotreatment of 2-phenyl-4,4,5,5-tetramethylimidazoline-1-oxyl-3-oxide ([…]) and DNIC–COOH (100 μM in MSC for 3 h, 100 μM in N2a for 10 h, and 75 μM in HCEC for 6 h) was also evaluated under a similar procedure.

The next data set concerns HCEC. Kind of data set: Whole-cell EPR: cellular uptake and intracellular formation/decomposition of mononuclear DNIC in HCEC. The format is cell-based, human. Particulars: for tmax for cellular uptake and intracellular transformation (whole-cell EPR): normoxia, 75 μM DNIC–COOH or 1 μM DNIC–COOMe. Here is the method: (§1) Cellular uptake of DNIC–COOH and intracellular formation/decomposition of mononuclear DNICs in MSC/N2a/HCEC cells were investigated using EPR spectroscopy. Briefly, cells were seeded into two (or one) 100 mm dish(es) at a density of 2 × 10^6 cells/dish and incubated at 37 °C overnight. On the next day, cells were treated with 100 μM of DNIC–COOH (or 100 μM of DNIC–COOH to N2a and 75 μM of DNIC–COOH to HCEC) and incubated for 0, 0.5, 1, 2, 3, 4, 8, and 24 h, respectively. After removal of the supernatant solution, cells were washed with DPBS before addition of 1 mL of trypsin (0.05%)/EDTA (0.53 mM) and incubation for 5 min at 37 °C. After the obtained cell suspension solutions from two 100 mm dishes were combined and centrifuged at 100g for 5 min, the supernatant was removed before addition of 100 μL of αMEM to DNIC-treated MSC (or MEM to DNIC-treated N2a and HSFM to DNIC-treated HCEC). This solution was then transferred into EPR quartz tube and frozen in N2(l) before the EPR measurements. For each measured EPR spectrum, double integration was executed to obtain the integrated EPR intensity under each condition. Moreover, time-dependent decay of integrated EPR signal intensity after treatment of DNIC–COOH was fit to pseudo-first-order kinetics in order to determine the intracellular half-life for EPR-active mononuclear DNIC. Three independent experiments were executed to measure the average half-life for intracellular decomposition of EPR-active mononuclear DNIC after treatment with DNIC–COOH at 37 °C. On the other hand, at the time point with maximum integrated EPR signal intensity, spin quantitation of intracellular EPR-active DNICs was performed using mononuclear DNIC [PPN][(NO)2Fe(S5)] as a standard according to the methodology used in the previous work.[50] Cellular uptake of DNIC–COOMe (2.5 μM to MSC, 10 μM to N2a, or 1 μM to HCEC) and intracellular formation/decomposition of EPR-active mononuclear DNICs were investigated using EPR spectroscopy in a similar manner.
(§2) Studies of cellular uptake mechanisms were investigated using EPR spectroscopy in combination with pretreatments of alternative inhibitors. After the MSC cells were seeded into two (or one) 100 mm dish(es) at a density of 2 × 10^6 cells/dish and incubated at 37 °C overnight, sequential treatments of 50 μM of NEM for 0.5 h and 100 μM of DNIC–COOH for 2 h were performed before the treated MSC cells were collected for EPR measurement following the procedure described above. […]

A further data set has as its system MSC/N2a/HCEC. Kind of data set: Whole-cell EPR, results stated jointly for MSC/N2a/HCEC. The format is cell-based. The note with it: for tmax for cellular uptake: stated jointly for MSC/N2a/HCEC. Here is the method:
as §1, with “manner. […]” for “manner.”

Another data set deals with deoxyMb. Further details: method as in PMID 37533298. Particulars: dinuclear DNIC, no Cys; cited from earlier work.
The subject of the next data set is MSC. Kind of data set: Whole-cell EPR: cellular uptake and intracellular formation/decomposition of mononuclear DNIC in MSC. It counts as cell-based, human. Particulars: for tmax for cellular uptake and intracellular transformation (whole-cell EPR): normoxia, 100 μM DNIC–COOH or 2.5 μM DNIC–COOMe. As for the experimental part:
as §1, §2

T1 sequence (P68082 2-154 limits assumed): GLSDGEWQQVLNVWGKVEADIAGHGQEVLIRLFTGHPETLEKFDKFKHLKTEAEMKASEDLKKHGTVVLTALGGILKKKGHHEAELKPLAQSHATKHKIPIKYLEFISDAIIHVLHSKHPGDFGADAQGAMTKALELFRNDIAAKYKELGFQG

On to `O=[N][Fe]1([N]=O)[SH](CCC(=O)O)[Fe]([N]=O)([N]=O)[SH]1CCC(=O)O` (centres unmarked) [DNIC–COOH, [(NO)2Fe(μ-SCH2CH2COOH)2Fe(NO)2]], for which the “reactivity toward the Fe3+-porphyrin center in metMb” value at metMb was “inert”. In the data set with HMOX1 gene (at t = 3–10 h (abstract)), the “activation of cytoprotective HO-1” value is on record as 50–150 fold change. Further, the “effect on transcriptional activation of HMOX1 gene by DNIC–COOH” value with HMOX1 gene (cotreatment of PTIO to MSC/HCEC) is reported as “no significant perturbation”; in the data set with HMOX1 gene (higher concentration of PTIO (100 μM) to N2a), “reduced transcriptional activation”; with HMOX1 gene (pretreatment of ODQ to MSC/N2a/HCEC), “no significant perturbation”. Moreover, the “tmax for cellular uptake and intracellular transformation (whole-cell EPR)” value with HCEC (HCEC) was found to be 480 min; in the data set with MSC (MSC), 120 min. Moreover, the “relative whole-cell EPR signal intensity at gav = 2.03 (control = 100%)” value was 77.5 ± 11.1% in the data set on HCEC (MβCD-treated HCEC), 72.1 ± 5.9% with HCEC (genistein-treated HCEC) and 84.2 ± 11.0% in the data set on MSC (CPZ-treated MSC). For the same molecule, in the data set on MSC/N2a/HCEC, the “tmax for cellular uptake” value was 120 to 480 min. The “nitrosylation of the Fe2+-porphyrin center in deoxyMb” value with deoxyMb is recorded as “efficient nitrosylation”.

With `COC(=O)CC[SH]1[Fe]([N]=O)([N]=O)[SH](CCC(=O)OC)[Fe]1([N]=O)[N]=O` (centres unmarked) [DNIC–COOMe, [(NO)2Fe(μ-SCH2CH2COOCH3)2Fe(NO)2]], the “relative whole-cell EPR signal intensity at gav = 2.03 (control = 100%)” value with HCEC (HCEC, native FBS replaced with 2% NEM-treated FBS) is given as 99.9 ± 15.3%; with HCEC (HCEC, pretreatment of NEM 0.5 h, then DNIC–COOMe 0.5 h, reduction) it was 35.8 ± 2.3%; in the data set on MSC (MSC, native FBS replaced with 20% NEM-treated FBS) it was 172.4 ± 24.1%; in the data set with MSC (MSC, pretreatment of NEM 0.5 h, then DNIC–COOMe 0.5 h, reduction) it was 29.7 ± 16.3%. In addition, the “tmax for cellular uptake and intracellular transformation (whole-cell EPR)” value in the data set on HCEC (HCEC) and in the data set on MSC (MSC) was 30 min in each case. Also, the “tmax for intracellular assembly of mononuclear DNICs” value in the data set on MSC/N2a/HCEC (MSC/N2a/HCEC, hypoxia) is 30 min. For the same molecule, the “tmax for cellular uptake” value in the data set on MSC/N2a/HCEC was 30 min.
